Data set [1] has as its target Replicase polyprotein 1ab (Severe acute respiratory syndrome-related coronavirus) (UniProt P0C6X7). As to conditions: dose 5.0 µM, time 30.0 min.
For data set [2], the target named is Replicase polyprotein 1ab (Severe acute respiratory syndrome coronavirus 2) (UniProt P0DTD1). As to conditions: dose 5.0 µM, time 30.0 min, values are per cent of control.
Data set [3] concerns the target T1, mRNA cap guanine-N(7) methyltransferase (Homo sapiens, UniProt O43148). As to conditions: dose 5.0 µM, time 30.0 min.
Data set [4] deals with Replicase polyprotein 1ab (Severe acute respiratory syndrome coronavirus 2, UniProt P0DTD1).
Data set [5] has as its target Replicase polyprotein 1ab (Severe acute respiratory syndrome-related coronavirus, UniProt P0C6X7).
The target in data set [6] is T1, mRNA cap guanine-N(7) methyltransferase.
For data set [7], the target named is Nonstructural protein 5 (Dengue virus, UniProt V5TFZ2). Also noted: species or system dengue virus type 3.
Data set [8] relates to Severe acute respiratory syndrome coronavirus 2. As to conditions: time 30.0 min.
Data set [9] in a line: Cytotoxicity against Green monkey VeroE6/TMPRSS2 cells assessed as reduction in cell viability upto 10 uM by CellTiter Blue assay. The format is toxicity, cell-based. As to conditions: chlorocebus sabaeus, veroe6/tmprss2, 10 µM.
The subject of data set [10] is SARS-CoV-2. As to the kind of experiment: Antiviral activity against SARS-CoV-2 B.1 infected in Green monkey VeroE6/TMPRSS2 cells assessed as viral replication inhibition at 10 uM incubated for 2 days by qRT-PCR analysis relative to control. Also noted: scale not given: the % may be the effect or the level left. The format is functional, Severe acute respiratory syndrome coronavirus 2.

Each structure is given as a SMILES string. Calls of active or inactive are those of the source. No cut-off for these calls is given here.

T1 sequence (O43148 whole entry): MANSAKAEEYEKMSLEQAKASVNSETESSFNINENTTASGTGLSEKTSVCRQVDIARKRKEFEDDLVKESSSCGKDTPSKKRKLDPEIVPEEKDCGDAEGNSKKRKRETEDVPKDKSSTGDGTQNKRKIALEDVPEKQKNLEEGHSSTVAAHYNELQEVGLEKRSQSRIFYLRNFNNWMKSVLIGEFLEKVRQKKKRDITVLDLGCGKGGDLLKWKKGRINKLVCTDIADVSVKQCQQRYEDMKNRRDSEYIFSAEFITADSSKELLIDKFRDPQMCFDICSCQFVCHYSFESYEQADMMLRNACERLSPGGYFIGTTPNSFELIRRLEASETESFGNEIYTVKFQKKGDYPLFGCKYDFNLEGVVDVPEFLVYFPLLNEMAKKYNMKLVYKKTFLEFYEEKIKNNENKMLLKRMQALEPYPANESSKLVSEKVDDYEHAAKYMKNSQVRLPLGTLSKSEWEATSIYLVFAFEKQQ

`COc1ccc(S(=O)(=O)N(C)C[C@H]2O[C@@H](n3cc(C#Cc4cnc5ccccc5c4)c4c(N)ncnc43)[C@H](O)[C@@H]2O)cc1C#N`: the inhibition in data set [1] was found to be 1.4%; in data set [3], 53%. The residual activity in data set [2] was 0%. The IC50 in data set [4] is 0.72 nM; in data set [5], 0.141 nM; in data set [6], 165000 nM; in data set [7], “Not Active”. The inhibition entry in [8] was “inactive”. Besides, the Activity result is given as “Non-Toxic” in data set [9] and 50% in data set [10] (time 2 day).

As for `COc1ccc(S(=O)(=O)N(C)C[C@H]2O[C@@H](n3cc(C#Cc4ccccc4)c4c(N)ncnc43)[C@H](O)[C@@H]2O)cc1C#N`, in [1], the inhibition was 1%. This compound yielded a residual activity in data set [2] of 2.4%. The inhibition entry in [3] and in [8] was “inactive” throughout. In addition, the IC50 was 1.2 nM in data set [4], 0.8 nM in [5], 56500 nM in data set [6] and “Not Active” in [7]. Moreover, the Activity entry in [9] is “Non-Toxic”. Moreover, the outcome in [10] (Severe acute respiratory syndrome coronavirus 2, time 2.0 day) was inactive.

The values are drawn from ChEMBL document CHEMBL5370550, “Structure-guided optimization of adenosine mimetics as selective and potent inhibitors of coronavirus nsp14 N7-methyltransferases” (Eur J Med Chem, 2023).
